Results from ChEMBL document CHEMBL6103581, “Identification of Thieno[3,2-d]pyrimidine derivatives as potent and selective Janus Kinase 1 inhibitors” (Eur J Med Chem, 2025).
Active and inactive are the calls of the source. The calls are words filed in the database; no cut-off is given here.

Assays:
[1] = tested on: BaF3; test: Antiproliferative activity against mouse parental BaF3 cells assessed as cell growth inhibition incubated for 72 hrs by Cell-TiterGlo assay; assay type: functional
[2] = tested on: NCI-H1975; test: Antiproliferative activity against human NCI-H1975 cells assessed as cell growth inhibition incubated for 72 hrs by Cell-TiterGlo assay; assay type: functional
[3] = biological target: Tyrosine-protein kinase JAK2 (Homo sapiens, UniProt O60674); test: Inhibition of N-terminal GST-tagged human recombinant JAK2 (804 to end residues) extracted from baculovirus infected in Sf9 cells using IGF1Rtide as substrate preincubated for 15 min followed by substrate addition and measured after 1 hr by ADP-Glo kinase assay
Chain of Tyrosine-protein kinase JAK2 (O60674 whole entry): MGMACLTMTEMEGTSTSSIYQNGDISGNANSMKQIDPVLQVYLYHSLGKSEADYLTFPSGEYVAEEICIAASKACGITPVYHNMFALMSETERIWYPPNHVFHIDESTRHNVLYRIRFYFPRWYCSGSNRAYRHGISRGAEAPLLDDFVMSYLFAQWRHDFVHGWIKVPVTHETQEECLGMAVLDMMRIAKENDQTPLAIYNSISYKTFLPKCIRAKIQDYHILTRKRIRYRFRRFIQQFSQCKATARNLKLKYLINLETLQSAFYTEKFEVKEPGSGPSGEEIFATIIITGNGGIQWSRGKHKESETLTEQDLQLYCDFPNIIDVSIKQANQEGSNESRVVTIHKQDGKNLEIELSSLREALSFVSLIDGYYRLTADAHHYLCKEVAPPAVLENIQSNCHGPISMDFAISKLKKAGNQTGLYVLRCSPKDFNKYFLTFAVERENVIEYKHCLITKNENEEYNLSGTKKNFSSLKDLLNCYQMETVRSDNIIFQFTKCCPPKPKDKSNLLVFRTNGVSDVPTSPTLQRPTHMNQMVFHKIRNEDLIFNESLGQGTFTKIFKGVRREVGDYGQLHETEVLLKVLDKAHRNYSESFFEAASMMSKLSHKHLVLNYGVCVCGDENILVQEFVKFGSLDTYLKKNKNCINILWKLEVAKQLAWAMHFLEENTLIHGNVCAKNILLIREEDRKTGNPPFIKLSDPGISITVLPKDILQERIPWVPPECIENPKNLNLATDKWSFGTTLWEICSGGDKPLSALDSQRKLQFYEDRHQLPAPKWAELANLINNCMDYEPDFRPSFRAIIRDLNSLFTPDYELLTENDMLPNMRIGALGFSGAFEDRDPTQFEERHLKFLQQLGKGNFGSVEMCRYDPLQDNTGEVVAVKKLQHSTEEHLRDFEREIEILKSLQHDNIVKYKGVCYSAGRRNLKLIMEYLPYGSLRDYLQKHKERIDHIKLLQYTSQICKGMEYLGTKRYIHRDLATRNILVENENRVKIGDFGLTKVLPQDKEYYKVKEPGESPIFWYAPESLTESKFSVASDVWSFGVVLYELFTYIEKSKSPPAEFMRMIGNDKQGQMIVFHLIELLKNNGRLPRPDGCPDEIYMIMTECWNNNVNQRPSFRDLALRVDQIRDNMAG

[4] = biological target: T1, Tyrosine-protein kinase JAK3 (Homo sapiens, UniProt P52333); test: Inhibition of N-terminal GST-tagged human recombinant JAK3 (781 to end residues) extracted from baculovirus infected in Sf9 cells using Poly(4:1 Glu, Tyr) as substrate preincubated for 15 min followed by substrate addition and measured after 1 hr by ADP-Glo kinase assay
T1 sequence (P52333 whole entry): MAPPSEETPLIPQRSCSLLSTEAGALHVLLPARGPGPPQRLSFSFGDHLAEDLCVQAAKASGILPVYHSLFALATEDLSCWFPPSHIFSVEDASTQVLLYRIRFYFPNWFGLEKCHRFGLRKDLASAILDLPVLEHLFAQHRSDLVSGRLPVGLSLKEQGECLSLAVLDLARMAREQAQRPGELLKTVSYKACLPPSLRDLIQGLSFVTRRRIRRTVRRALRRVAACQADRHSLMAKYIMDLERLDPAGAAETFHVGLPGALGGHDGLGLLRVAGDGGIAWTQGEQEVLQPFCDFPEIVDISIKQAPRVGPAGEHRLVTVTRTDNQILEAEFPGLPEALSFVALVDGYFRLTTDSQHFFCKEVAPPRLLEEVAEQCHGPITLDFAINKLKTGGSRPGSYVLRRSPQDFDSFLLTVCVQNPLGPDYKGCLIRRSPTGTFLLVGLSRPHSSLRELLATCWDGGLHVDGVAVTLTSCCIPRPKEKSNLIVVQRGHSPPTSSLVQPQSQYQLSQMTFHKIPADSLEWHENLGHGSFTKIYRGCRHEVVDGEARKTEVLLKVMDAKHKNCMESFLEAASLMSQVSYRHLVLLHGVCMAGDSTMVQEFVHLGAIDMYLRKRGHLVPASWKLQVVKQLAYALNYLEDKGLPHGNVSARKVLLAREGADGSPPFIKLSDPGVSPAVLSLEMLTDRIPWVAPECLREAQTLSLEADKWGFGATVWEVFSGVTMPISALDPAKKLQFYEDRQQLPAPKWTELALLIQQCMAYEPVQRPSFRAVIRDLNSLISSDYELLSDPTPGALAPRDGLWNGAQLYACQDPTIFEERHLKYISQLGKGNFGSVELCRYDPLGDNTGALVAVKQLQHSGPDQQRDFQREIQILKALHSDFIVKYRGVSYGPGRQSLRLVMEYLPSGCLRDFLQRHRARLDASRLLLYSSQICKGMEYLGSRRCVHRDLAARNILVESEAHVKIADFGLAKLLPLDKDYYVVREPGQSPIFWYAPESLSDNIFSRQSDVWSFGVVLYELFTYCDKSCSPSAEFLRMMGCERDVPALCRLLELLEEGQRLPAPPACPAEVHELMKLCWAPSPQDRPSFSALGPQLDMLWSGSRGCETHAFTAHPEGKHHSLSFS

[5] = Antiproliferative activity against mouse Ba/F3-TEL-JAK1 cells assessed as cell growth inhibition incubated for 72 hrs by Cell-TiterGlo assay; assay type: functional
[6] = tested on: NCI-H2087; test: Antiproliferative activity against human NCI-H2087 cells assessed as cell growth inhibition incubated for 72 hrs by Cell-TiterGlo assay; assay type: functional
[7] = tested on: NCI-H1975; test: Inhibition of colony formation in human NCI-H1975 cells at 10 uM incubated for 14 days by crystal violet staining based 2D colony formation assay relative to control; assay type: functional; conditions: NCI-H1975, 336 h, time 14 day
[8] = tested on: NCI-H1975; test: Induction of apoptosis in human NCI-H1975 cells at 1 to 10 uM incubated for 24 hrs by Annexin V/Propidium iodide staining based analysis; assay type: functional, cell-based; conditions: dose 1-10 µM
[9] = tested on: NCI-H1975; test: Synergistic antiproliferative activity against human NCI-H1975 cells assessed as cell growth inhibition measured after 48 hrs in presence of osimertinib by celltiterglo analysis; assay type: functional, cell-based
[10] = tested on: NCI-H2087; test: Inhibition of colony formation in human NCI-H2087 cells at 10 uM incubated for 14 days by crystal violet staining based 2D colony formation assay relative to control; assay type: functional; conditions: NCI-H2087, 336 h, time 14 day
[11] = tested on: NCI-H1975; test: Induction of cell cycle arrest in human NCI-H1975 cells assessed as accumulation of cells at G2/M phase at 1 to 10 uM incubated for 24 hrs by propidium iodide/RNase staining based analysis; assay type: functional; conditions: dose 1-10 µM
[12] = biological target: Signal transducer and activator of transcription 3 (Homo sapiens) (UniProt P40763); test: Inhibition of STAT3 phosphorylation in human NCI-H1975 cells incubated for 1 hr by Western blot analysis; assay type: cell-based; conditions: dose 1-10 µM
Chain of Signal transducer and activator of transcription 3 (Homo sapiens) (P40763 whole entry): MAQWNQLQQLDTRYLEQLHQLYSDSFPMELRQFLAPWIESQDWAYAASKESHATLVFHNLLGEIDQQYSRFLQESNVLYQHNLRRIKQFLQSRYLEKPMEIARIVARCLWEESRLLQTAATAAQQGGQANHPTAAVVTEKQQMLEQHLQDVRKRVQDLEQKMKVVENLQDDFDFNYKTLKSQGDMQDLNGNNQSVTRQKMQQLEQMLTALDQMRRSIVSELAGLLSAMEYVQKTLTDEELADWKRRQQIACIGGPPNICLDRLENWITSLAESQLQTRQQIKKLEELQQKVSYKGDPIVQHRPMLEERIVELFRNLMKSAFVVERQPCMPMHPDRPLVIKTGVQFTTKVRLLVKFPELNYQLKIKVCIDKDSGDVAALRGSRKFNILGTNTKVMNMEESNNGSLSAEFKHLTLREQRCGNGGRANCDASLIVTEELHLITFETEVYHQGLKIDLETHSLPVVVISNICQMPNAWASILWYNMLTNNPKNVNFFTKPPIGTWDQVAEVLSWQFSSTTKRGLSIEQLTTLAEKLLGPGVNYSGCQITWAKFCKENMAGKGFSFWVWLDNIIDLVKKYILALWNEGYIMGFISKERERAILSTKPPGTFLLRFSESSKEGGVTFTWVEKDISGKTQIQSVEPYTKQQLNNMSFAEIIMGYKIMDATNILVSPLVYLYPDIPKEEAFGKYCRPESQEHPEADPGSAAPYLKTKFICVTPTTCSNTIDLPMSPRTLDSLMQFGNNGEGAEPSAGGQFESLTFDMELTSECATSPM

[13] = biological target: Signal transducer and activator of transcription 3 (Homo sapiens) (UniProt P40763); test: Inhibition of STAT3 phosphorylation in human NCI-H2087 cells incubated for 1 hr by Western blot analysis; assay type: cell-based; conditions: dose 1-10 µM
[14] = tested on: NCI-H2087; test: Induction of cell cycle arrest in human NCI-H2087 cells assessed as accumulation of cells at G2/M phase at 1 to 10 uM incubated for 24 hrs by propidium iodide/RNase staining based analysis; assay type: functional; conditions: dose 1-10 µM
[15] = tested on: NCI-H2087; test: Induction of apoptosis in human NCI-H2087 cells at 1 to 10 uM incubated for 24 hrs by Annexin V/Propidium iodide staining based analysis; assay type: functional, cell-based; conditions: dose 1-10 µM
[16] = tested on: NCI-H1975; test: Upregulation of STAT3 phosphorylation level in human NCI-H1975 cells; assay type: functional, cell-based
[17] = tested on: UMUC3; test: Antiproliferative activity against human UMUC3 cells overexpressing JAK1 assessed as suppression of cell growth incubated for 72 hrs by Cell-TiterGlo assay; assay type: functional, cell-based
[18] = tested on: HCT-116; test: Antiproliferative activity against human HCT-116 cells overexpressing JAK1 assessed as suppression of cell growth incubated for 72 hrs by Cell-TiterGlo assay; assay type: functional, cell-based
[19] = tested on: NCI-H1975; test: Antiproliferative activity against human NCI-H1975 cells overexpressing JAK1 assessed as suppression of cell growth incubated for 72 hrs by Cell-TiterGlo assay; assay type: functional, cell-based
[20] = tested on: NCI-H2087; test: Upregulation of STAT3 phosphorylation level in human NCI-H2087 cells; assay type: functional, cell-based
[21] = tested on: U2OS; test: Antiproliferative activity against human U2OS cells overexpressing JAK1 assessed as suppression of cell growth incubated for 72 hrs by Cell-TiterGlo assay; assay type: functional, cell-based
[22] = tested on: NCI-H1975; test: Inhibition of colony formation in human NCI-H1975 cells at 10 uM incubated for 14 days by crystal violet staining based 2D colony formation assay; assay type: functional, cell-based; conditions: time 14.0 day
[23] = tested on: HT-29; test: Antiproliferative activity against human HT-29 cells overexpressing JAK1 assessed as suppression of cell growth incubated for 72 hrs by Cell-TiterGlo assay; assay type: functional, cell-based
[24] = tested on: NCI-H2087; test: Antiproliferative activity against human NCI-H2087 cells overexpressing JAK1 assessed as suppression of cell growth incubated for 72 hrs by Cell-TiterGlo assay; assay type: functional, cell-based
[25] = tested on: NCI-H2087; test: Inhibition of colony formation in human NCI-H2087 cells at 10 uM incubated for 14 days by crystal violet staining based 2D colony formation assay; assay type: functional, cell-based; conditions: time 14.0 day

| Structure (SMILES) | GI50 [1] [µM] | GI50 [2] [µM] | IC50 [3] [µM] | IC50 [4] [µM] | GI50 [5] [µM] | GI50 [6] [µM] | also measured |
| --- | --- | --- | --- | --- | --- | --- | --- |
| COc1nn(C)cc1Nc1ncc2scc(-c3cccc(NC(=O)[C@H]4CCCN4)c3)c2n1 | 3.31 | 5.26 | 1.6 | 0.069 | 0.744 | 1.51 | – |
| COc1nn(C)cc1Nc1ncc2scc(-c3cccc(NC(=O)[C@H]4CCCN4C(C)=O)c3)c2n1 | 4.06 | 10.2 | 3.02 | 0.248 | 0.897 | 13.1 | – |
| COc1nn(C)cc1Nc1ncc2scc(-c3cccc(N)c3)c2n1 | 1.01 | 4.49 | 0.154 | 0.068 | 0.313 | 4.6 | – |
| Cc1ccnc(C)c1Nc1ncc2scc(-c3cccc(NC(=O)[C@@H](C)N4CCN(C)CC4)c3)c2n1 | 17.3 | 28.9 | – | – | 16.2 | 7.82 | – |
| COc1nn(C)cc1Nc1ncc2scc(-c3cccc(NC(=O)[C@H]4CCCN4C4CCOCC4)c3)c2n1 | 6.37 | 21 | – | – | 2.79 | 9.31 | – |
| C[C@@H]1CCN(C(=O)CC#N)C[C@@H]1N(C)c1ncnc2[nH]ccc12 [TOFACITINIB] | 1.81 | > 50 | – | – | 0.495 | > 50 | – |
| C[C@H](C(=O)Nc1cccc(-c2csc3cnc(Nc4cn(C)nc4C(F)(F)F)nc23)c1)N1CCN(C)CC1 | 2.77 | 7.4 | – | – | 1.93 | 3.03 | – |
| COc1nn(C)cc1Nc1ncc2scc(-c3cccc(NC(=O)[C@@H](C)N4CCN(C5COC5)CC4)c3)c2n1 | 6.07 | > 50 | – | – | 6.78 | 16.4 | – |
| Cc1ccc(Nc2ncc3scc(-c4cccc(NC(=O)[C@@H](C)N5CCN(C)CC5)c4)c3n2)c(C)n1 | 7.83 | 27.2 | – | – | 5.45 | 6.49 | – |
| COc1nn(C)cc1Nc1ncc2scc(-c3cccc(NC(=O)[C@@H](C)N4CCN(CCO)CC4)c3)c2n1 | 0.614 | 6.67 | 0.759 | 1.6 | 0.193 | 5.96 | inhibition at 10 µM [7]: 100%; Activity [8]: Active; Activity [9]: Active; inhibition at 10 µM [10]: 100%; Activity [11]: Active; inhibition [12]: Dose-dependent-effect; inhibition [13]: Dose-dependent-effect; Activity [14]: Active; Activity [15]: Active |
| Cc1ccc(Nc2ncc3scc(-c4cccc(NC(=O)[C@@H](C)N5CCN(C)CC5)c4)c3n2)cn1 | 2.52 | 9.18 | – | – | 0.994 | 2.67 | – |
| Cc1nn(C)cc1Nc1ncc2scc(-c3cccc(NC(=O)[C@@H](C)N4CCN(C)CC4)c3)c2n1 | 2.91 | 3.19 | 2.75 | 4.9 | 0.45 | 5.65 | Activity [16]: Active; Activity [8]: Active; Activity [9]: Active; Activity [11]: Active; inhibition [12]: Dose-dependent-effect; Activity [17]: Active; Activity [18]: Active; inhibition [13]: Dose-dependent-effect; Activity [19]: Active; Activity [20]: Active; Activity [21]: Active; inhibition [22]: Active; Activity [14]: Active; Activity [23]: Active; Activity [24]: Active; inhibition [25]: Active; Activity [15]: Active |
| COc1nn(C)cc1Nc1ncc2scc(-c3cccc(NC(C)=O)c3)c2n1 | 4.16 | > 50 | 0.295 | 0.05 | 0.331 | > 44 | – |
| Cc1ncccc1Nc1ncc2scc(-c3cccc(NC(=O)[C@@H](C)N4CCN(C)CC4)c3)c2n1 | 2.74 | 23.1 | – | – | 1.97 | 6.42 | – |
| COc1nn(C)cc1Nc1ncc2scc(-c3cccc(NC(=O)[C@@H](C)N4CCN(C5CCOCC5)CC4)c3)c2n1 | 1.37 | 23.4 | – | – | 1.22 | 8.98 | – |
